Experimental data from US4797506A, “6-substituted prostaglandins E1 and process for producing same” (Teijin Limited, priority 1984, dated 1989).

How the values were obtained:
platelet aggregation [1] = test: In vitro platelet aggregation inhibition (ADP-induced, PRP); format: cell-based, Japanese white male domestic rabbits; conditions: Oryctolagus cuniculus, rabbit PRP, 10 μM ADP, 37° C., sample in ethanol diluted with phosphoric acid buffer pH 7.4, left at 0° C. for 4 hours, lowest concentration at which the inhibition is 50%, read-out: Anti-platelet aggregation effect IC50
Procedure: (ii) In vitro PlateletAAggregation Inhibition Effect
The in vitro platelet aggregation inhibition effect of the sample compounds to be tested was examined by using rabbits. That is, blood was collected from the ear vein of native Japanese white male domestic rabbits weighing 2.5 to 3.5 kg. The collected blood was 9 parts by volume per 1 part by volume of a 3.8% sodium citrate solution. The blood was centrifuged at 100 r.p.m. for 10 minutes. The upper layer portion was separated as PRP (rich in platelet blood plasma). The lower layer portion was further centrifuged at 2800 r.p.m. for 10 minutes to divide it into two layers. The upper layer portion was separated as PPP (poor in platelet blood plasma). The member of the platelet was diluted with PPP to 6 to 7×10^' /μl. After the adjustment, 25 μl of the sample compound was added to 250 μl of PRP, which was preincubated at a temperature of 37° C. for 2 minutes. […]
When the activity of the sample compounds was determined, the ethanol solution was diluted with a phosphoric acid buffer (pH 7.4). The ethanol solution diluted with the buffer was left to stand at a temperature of 0° C. for 4 hours, after which the activity of the sample compounds was determined in the same manner.
The agglutination inhibition was calculated by the following formula: [formula] […]

[2] = system: ulcer formation induced by indomethacin; test: Inhibition of indomethacin-induced ulcer formation in rats (antiulcerative effect); format: in vivo, Wister male rats; conditions: Rattus norvegicus, P.O., 30 minutes before oral indomethacin 20 mg/kg, ulcer length 5 hours after indomethacin
Procedure: (i) Determination of Antiulcerative Effect
The inhibiting effect on ulcer formation induced by indomethacin was examined by using rats. Wister male rats (7 weeks old, body weight 220 g) were abstained from food for 24 hours except giving water and then subjected to experiments.
The sample compounds to be tested were dissolved in a phosphoric acid buffer (pH 7.4) containing 0.9% NaCl and the solution was orally administered to the rats. 30 minutes after the administration, indomethacin was orally administered to the rats at a dose of 20 mg/kg. 5 hours after the administration of the indomethacin, the rats were killed and the ulcer formation in the stomach was examined by determining the length of the ulcer formation portion under a stereomicroscope. From this measurement, the inhibition of ulcer formation by the sample compounds was calculated to determine the ED50 values.

platelet aggregation [3] = conditions: compared with prostacyclin; cited from earlier work

SMILES: CCCCC(C)(O)C/C=C/[C@H]1[C@H](O)CC(=O)[C@@H]1CC(CCCCC(=O)OC)[N+](=O)[O-] (stereo partly drawn)
- IC50 (platelet aggregation [1]): > 100 µg/mL
- ED50 [2]: 0.022 mg/kg

SMILES: CCCCC[C@H](O)/C=C/[C@H]1[C@H](O)CC(=O)[C@@H]1CC(=O)CCCCC(=O)O [6-oxoprostaglandin E1]
- platelet aggregation inhibition effect (platelet aggregation [3]): as strong as those of prostacyclin
